Test systems include SK-MEL-2; OVCAR-3; SF-539; NCI-H226; OVCAR-5; TK-10; HCC 2998; OVCAR-4; RXF 393; SNB-75; SF-295; U-251; HCT-116; UACC-62; MOLT-4; SR; HCT-15; UACC-257; IGROV-1; MDA-MB-231.
What all share (experiment): growth of human tumour cells (NCI), 48 h

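The compound was tested at five concentrations on cells cultured in 96-well plates, with a 48-hour exposure period. GI50: concentration for 50% inhibition of growth.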 Calls of active or inactive are those of the source. Rule as the data show it: active = GI50 up to about 1.1 µM and inactive = higher.

For `N=c1c2ccccc2nc2oc3ccc(Cl)cc3n12`, the GI50 in the assay with SK-MEL-2 is 20.6 µM (inactive); in the assay on OVCAR-3, 13.9 µM (inactive); with SF-539, 15.5 µM (inactive); with NCI-H226 it was 17.8 µM (inactive); with OVCAR-5, 19.8 µM (inactive); with TK-10, 20 µM (inactive). The GI50 was > 100 µM (inactive) in the assay with HCC 2998; 2.77 µM (inactive) in the assay on OVCAR-4; 11.9 µM (inactive) in the assay on RXF 393; 2.75 µM (inactive) in the assay with SNB-75; 12.8 µM (inactive) with SF-295; 5.38 µM (inactive) with U-251. Besides, the GI50 with HCT-116 was 10.6 µM (inactive); with UACC-62, 37.7 µM (inactive); with MOLT-4, 35.3 µM (inactive); in the assay on SR it was 31.9 µM (inactive); in the assay with HCT-15, 48 µM; with UACC-257 it was > 100 µM (inactive). For the same molecule, the GI50 in the assay on IGROV-1 is 16.4 µM (inactive); in the assay with MDA-MB-231, 25.6 µM (inactive).

Values taken from ChEMBL document CHEMBL1201862, “PubChem BioAssay data set” (2004).
